In ChEMBL document CHEMBL1201862, “PubChem BioAssay data set” (2004):
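1) Cells in 96-well plates. 2) Compound, 48 h, 5 concentrations. 3) Linear interpolation between surrounding doses. 4) Unreached endpoint = highest concentration. GI50: concentration for 50% inhibition of growth.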 Activity calls are given as the source filed them. Rule as the data show it: active = GI50 up to about 1.1 µM and inactive = higher.

Assays:
Assay in all cases: NCI tumour cell line growth inhibition, 48 h
[1] = system: 786-0
[2] = system: A498
[3] = system: A549
[4] = system: ACHN
[5] = system: BT-549
[6] = system: CAKI-1
[7] = system: CCRF-CEM
[8] = system: COLO 205
[9] = system: DU-145
[10] = system: HCC 2998
[11] = system: HCT-116
[12] = system: HCT-15
[13] = system: HL-60
[14] = system: HOP-92
[15] = system: HT-29
[16] = system: Hs-578T
[17] = system: K562
[18] = system: LOX IMVI
[19] = system: M14
[20] = system: MCF7
[21] = system: MDA-MB-231
[22] = system: MDA-MB-435
[23] = system: MDA-N
[24] = system: MOLT-4
[25] = system: Malme-3M
[26] = system: NCI-H226
[27] = system: NCI-H23
[28] = system: NCI-H460
[29] = system: NCI-H522
[30] = system: NCI/ADR-RES
[31] = system: OVCAR-3
[32] = system: OVCAR-4
[33] = system: OVCAR-5
[34] = system: OVCAR-8
[35] = system: PC-3
[36] = system: RPMI-8226
[37] = system: SF-268
[38] = system: SF-295
[39] = system: SF-539
[40] = system: SK-MEL-28
[41] = system: SK-MEL-2
[42] = system: SK-MEL-5
[43] = system: SK-OV-3
[44] = system: SN12C
[45] = system: SNB-19
[46] = system: SW-620
[47] = system: T47D
[48] = system: U-251
[49] = system: UACC-257
[50] = system: UACC-62
[51] = system: UO-31
[52] = system: EKVX
[53] = system: HOP-62
[54] = system: IGROV-1
[55] = system: KM12
[56] = system: RXF 393
[57] = system: SNB-75
[58] = system: TK-10

Nc1ccc(Cc2c(N)[nH]c(=O)[nH]c2=O)cc1
GI50 [1]: > 100 µM (inactive)
GI50 [2]: 47.3 µM (inactive)
GI50 [3]: > 100 µM (inactive)
GI50 [4]: > 100 µM (inactive)
GI50 [5]: > 100 µM (inactive)
GI50 [6]: > 100 µM (inactive)
GI50 [7]: 39.5 µM (inactive)
GI50 [8]: > 100 µM (inactive)
GI50 [9]: > 100 µM (inactive)
GI50 [10]: > 100 µM (inactive)
GI50 [11]: > 100 µM (inactive)
GI50 [12]: > 100 µM
GI50 [13]: 85.5 µM (inactive)
GI50 [14]: > 100 µM (inactive)
GI50 [15]: > 100 µM (inactive)
GI50 [16]: > 100 µM (inactive)
GI50 [17]: > 100 µM (inactive)
GI50 [18]: > 100 µM (inactive)
GI50 [19]: > 100 µM (inactive)
GI50 [20]: > 100 µM (inactive)
GI50 [21]: > 100 µM (inactive)
GI50 [22]: > 100 µM (inactive)
GI50 [23]: > 100 µM (inactive)
GI50 [24]: 1.61 µM (inactive)
GI50 [25]: > 100 µM (inactive)
GI50 [26]: 86.1 µM (inactive)
GI50 [27]: > 100 µM (inactive)
GI50 [28]: > 100 µM (inactive)
GI50 [29]: > 100 µM (inactive)
GI50 [30]: > 100 µM (inactive)
GI50 [31]: > 100 µM (inactive)
GI50 [32]: > 100 µM (inactive)
GI50 [33]: > 100 µM (inactive)
GI50 [34]: > 100 µM (inactive)
GI50 [35]: > 100 µM (inactive)
GI50 [36]: > 100 µM (inactive)
GI50 [37]: > 100 µM (inactive)
GI50 [38]: > 100 µM (inactive)
GI50 [39]: > 100 µM (inactive)
GI50 [40]: > 100 µM (inactive)
GI50 [41]: > 100 µM (inactive)
GI50 [42]: > 100 µM (inactive)
GI50 [43]: > 100 µM (inactive)
GI50 [44]: > 100 µM (inactive)
GI50 [45]: > 100 µM (inactive)
GI50 [46]: > 100 µM (inactive)
GI50 [47]: > 100 µM (inactive)
GI50 [48]: > 100 µM (inactive)
GI50 [49]: > 100 µM (inactive)
GI50 [50]: > 100 µM (inactive)
GI50 [51]: > 100 µM (inactive)

Cn1c(=O)c2c(nc3sc4ccccc4c(=O)n32)n(C)c1=O
GI50 [1]: > 100 µM (inactive)
GI50 [2]: > 100 µM (inactive)
GI50 [4]: > 100 µM (inactive)
GI50 [5]: > 100 µM (inactive)
GI50 [6]: > 100 µM (inactive)
GI50 [8]: > 100 µM (inactive)
GI50 [9]: > 100 µM (inactive)
GI50 [52]: > 100 µM (inactive)
GI50 [10]: > 100 µM (inactive)
GI50 [11]: > 100 µM (inactive)
GI50 [12]: > 100 µM
GI50 [13]: > 100 µM (inactive)
GI50 [53]: > 100 µM (inactive)
GI50 [14]: > 100 µM (inactive)
GI50 [15]: > 100 µM (inactive)
GI50 [16]: > 100 µM (inactive)
GI50 [54]: > 100 µM (inactive)
GI50 [17]: > 100 µM (inactive)
GI50 [55]: > 100 µM (inactive)
GI50 [18]: > 100 µM (inactive)
GI50 [19]: > 100 µM (inactive)
GI50 [20]: > 100 µM (inactive)
GI50 [21]: > 100 µM (inactive)
GI50 [22]: > 100 µM (inactive)
GI50 [23]: > 100 µM (inactive)
GI50 [24]: > 100 µM (inactive)
GI50 [26]: > 100 µM (inactive)
GI50 [27]: > 100 µM (inactive)
GI50 [28]: > 100 µM (inactive)
GI50 [30]: > 100 µM (inactive)
GI50 [31]: > 100 µM (inactive)
GI50 [32]: > 100 µM (inactive)
GI50 [33]: > 100 µM (inactive)
GI50 [34]: > 100 µM (inactive)
GI50 [35]: > 100 µM (inactive)
GI50 [36]: > 100 µM (inactive)
GI50 [56]: > 100 µM (inactive)
GI50 [37]: > 100 µM (inactive)
GI50 [38]: > 100 µM (inactive)
GI50 [39]: > 100 µM (inactive)
GI50 [40]: > 100 µM (inactive)
GI50 [41]: > 100 µM (inactive)
GI50 [42]: > 100 µM (inactive)
GI50 [43]: > 100 µM (inactive)
GI50 [44]: > 100 µM (inactive)
GI50 [45]: > 100 µM (inactive)
GI50 [57]: 68.4 µM (inactive)
GI50 [46]: > 100 µM (inactive)
GI50 [47]: > 100 µM (inactive)
GI50 [58]: > 100 µM (inactive)
GI50 [48]: > 100 µM (inactive)
GI50 [49]: > 100 µM (inactive)
GI50 [50]: > 100 µM (inactive)
GI50 [51]: > 100 µM (inactive)

COC(=O)C1=C(OC)C(=P2(c3ccccc3)CC(c3ccccc3)=C2c2ccccc2)C(C(=O)OC)=C1C(=O)OC (stereo not given)
GI50 [1]: 27.4 µM (inactive)
GI50 [3]: 26.4 µM (inactive)
GI50 [4]: 49.8 µM (inactive)
GI50 [5]: > 76.6 µM (inactive)
GI50 [6]: 50.4 µM (inactive)
GI50 [7]: 0.745 µM (active)
GI50 [8]: 18.8 µM (inactive)
GI50 [9]: > 61.2 µM (inactive)
GI50 [52]: > 91.8 µM (inactive)
GI50 [10]: > 100 µM (inactive)
GI50 [11]: 22.8 µM (inactive)
GI50 [12]: 11 µM
GI50 [13]: 0.968 µM (active)
GI50 [53]: > 100 µM (inactive)
GI50 [16]: > 100 µM (inactive)
GI50 [54]: 22.2 µM (inactive)
GI50 [17]: 4.58 µM (inactive)
GI50 [55]: 27.5 µM (inactive)
GI50 [18]: 25.1 µM (inactive)
GI50 [19]: 43.5 µM (inactive)
GI50 [20]: 7.55 µM (inactive)
GI50 [21]: > 72.8 µM (inactive)
GI50 [22]: 40.7 µM (inactive)
GI50 [23]: 38 µM (inactive)
GI50 [24]: 3.17 µM (inactive)
GI50 [25]: 29.9 µM (inactive)
GI50 [26]: 68.9 µM (inactive)
GI50 [27]: 33.8 µM (inactive)
GI50 [28]: 15 µM (inactive)
GI50 [29]: 2.65 µM (inactive)
GI50 [30]: > 82.4 µM (inactive)
GI50 [31]: 35 µM (inactive)
GI50 [32]: 19.5 µM (inactive)
GI50 [33]: > 100 µM (inactive)
GI50 [34]: > 95.7 µM (inactive)
GI50 [35]: 10.8 µM (inactive)
GI50 [36]: 9.42 µM (inactive)
GI50 [56]: 18.1 µM (inactive)
GI50 [37]: > 61.1 µM (inactive)
GI50 [38]: > 76.6 µM (inactive)
GI50 [39]: 23.6 µM (inactive)
GI50 [40]: > 68.5 µM (inactive)
GI50 [41]: 54.5 µM (inactive)
GI50 [42]: 15.7 µM (inactive)
GI50 [43]: > 61.5 µM (inactive)
GI50 [44]: 31.8 µM (inactive)
GI50 [45]: 67.1 µM (inactive)
GI50 [57]: 41.6 µM (inactive)
GI50 [46]: 14.6 µM (inactive)
GI50 [47]: 15.5 µM (inactive)
GI50 [58]: > 20.2 µM (inactive)
GI50 [48]: 19.9 µM (inactive)
GI50 [49]: > 71.1 µM (inactive)
GI50 [50]: 61.2 µM (inactive)
GI50 [51]: 14.9 µM (inactive)
